In patent US20220015355A1, “NOVEL CARRIER FLUIDS FOR LIQUID FUNGAL SPORE FORMULATIONS” (priority 2018, published 2022):
Read-outs that look alike come from different tables or passages of the source. Marks after values point to notes of the source that are not given here.

Key:
[1] = tested on: Isaria fumosorosea spores; test: spore viability of Isaria fumosorosea spores in carrier fluid after storage at 30° C., Method 1 (germination on agar); type: cell-based
Experimental: (§1) Method 1: 1.5 g of Isaria fumosorosea pure spore powder were transferred into a formulation vessel (IKA Type DT-20 mixing vessel with dispersion tool for Ultra Turrax) using a sterile spoon. 13.5 mL of fluid were added into the respective formulation vessel and dispersed using ultra turrax tube drive control for 1 min at 3000 rpm; change direction after 30 sec. After this 2.8 mL were transferred in four sample bottles (Wheaton Serum vial, Type I) leaving little headspace and closed tight using crimpneck caps (Macherey—Nagel type N 13) Afterwards all sample bottles were transferred to an incubator set at 30° C. and stored for a given time.
(§2) In regular intervals a sample was retrieved from the storage location and analyzed for spore viability. Therefore the original samples were thoroughly homogenized. Aliquots of 0.25 g or […] of each sample are transferred into 50 mL falcon tubes. The tubes were filled up to 25 g using a sterile aqueous solution containing 2% Tween 80 and homogenized by vortexing to achieve the first dilution step (1:100 dilution). This dilution is used for further dilution and spotting on agar.
For evaluation of spore germination rate a 1:15000 dilution based on the 1:100 dilution achieved by multiple automated dilution (pipetting robot, 96 well plate) was prepared. Afterwards 12×12 cm agar plates were taken and spotted with 10 times 5 μL of each sample using an automated 12-Channel pipet. After all liquid is soaked up by agar the agar plates were incubated at 23° C. for 16 hours.

[2] = tested on: P. lilacinum strain 251 spores; test: spore viability (germination rate on agar) of P. lilacinum spores in carrier fluid after storage at 30° C.; type: cell-based, Purpureocillium lilacinum; settings: for decline in spore viability at day 1 and after storage: text summary of Table I, fluids not within the scope of the invention
Experimental: as §1, with “3” for “Method 1: 1.5”, “P. lilacinum strain 251” for “Isaria fumosorosea”, “12” for “13.5”
as §2
(§3) For evaluation of spore germination rate prepare a 1:30000 dilution based on the 1:100 dilution achieved by multiple automated dilution (pipetting robot, 96 well plate). Afterwards 12×12 cm agar plates are taken and spotted with 10 times […] of each sample using an automated 12-Channel pipet. Wait until liquid is soaked up by agar and transfer agar plate to an incubator and incubate at 25° C. for 17 hours. Open the plate and place it under the microscope. Randomly choose one area per spot and record the number of germinated and non-germinated spores that are within the designated field. At least 200 spores per sample need to be evaluated. If needed count more than one field per spot.

[3] = tested on: Beauveria Bassiana spores; test: spore viability (germination rate on agar) of Beauveria bassiana spores in carrier fluid after storage at 30° C.; type: cell-based; settings: for decline in spore viability after storage under given conditions: Table III, fluids not within the scope of the invention
Experimental: as §1, with “1.5” for “Method 1: 1.5”, “Beauveria Bassiana” for “Isaria fumosorosea”
as §2
as §3, with “1:15000” for “1:30000”, “20°” for “25°”

[4] = tested on: Isaria fumosorosea spores; test: spore viability of Isaria fumosorosea spores in carrier fluid after storage, Method 2 (flow cytometry); type: cell-based
Experimental: Method 2: 0.5 g of Isaria fumosoresea pure spore powder were transferred into an Erlenmeyer flask using a sterile spoon. 24.5 mL of fluid were dispersed using Ultra-Turrax (IKA; Type T 25 D) for 1 min at 3,000 rpm. After this, 2.0 mL were transferred in 20 sample bottles (Wheaton Serum vial, Type I) leaving little headspace and closed tight using crimpneck caps (Macherey—Nagel type N 13). Afterwards all sample bottles were transferred to an incubator set at 30° C. and stored for a given time.
In regular intervals a sample was retrieved from the storage location and analyzed for spore viability. For this purpose, the original samples were thoroughly homogenized. Aliquots of 0.5 g of each sample were transferred into 100 mL-Erlenmeyer flask. The flasks were filled up to 50 g using a sterile aqueous solution containing 0.1% Break Thru® 5240 (Evonik, Industries) and homogenized on a magnetic stirrer (Thermo Fisher Scientific: Cimarec™) at least for 15 min with 750 rpm to achieve the first dilution step (1:100 dilution). This dilution was used for further dilution.
Not all samples mixed well or mixed at all in 0.1% Break Thru 5240. For these samples, 500 μL Neo-wett (Kwizda Agro GmbH) and/or a small amount (knife tip) Metaupon®-OMT (LEUNA Tenside GmbH) were also added to the aqueous solution.
After homogenization 1 mL were transferred into a 1.5 mL tube and were centrifuged for 15 min at 14,000 rpm (Thermo Fisher Scientific, Type Megafuge 8R). The supernatant (=upper phase) was discarded by using a pipette. The tubes were filled up to 1 mL using a sterile aqueous solution containing 0.1% Neo-wett and homogenized by vortexing.
To assess fungal viability, a method based on flow cytometry was used.

[5] = tested on: Penicillium bilaii (ATCC 20851) spores; test: spore viability (germination rate on agar) of Penicillium bilaii spores in carrier fluid after storage at 30° C.; type: cell-based
Experimental: as §1, with “1.5” for “Method 1: 1.5”, “Penicillium bilaii (ATCC 20851)” for “Isaria fumosorosea”
as §2
as §3, with “1:15000” for “1:30000”, “20°” for “25°”

[6] = I. fumosorosea, Method 1, day 1
[7] = Method 1, storage at 30° C., 27 d
[8] = Method 1, storage at 30° C., 210 d
[9] = P. lilacinum strain 251 in the liquid, day 1

Row | Molecule | spore viability [%] at day 1 [1, 6] | spore viability [%] after 1 m (27 d) [1, 7] | spore viability [%] after 7 m (210 d) [1, 8] | spore viability [%] at day 1 [2, 9] | spore viability [%] after 2 w (12-15 d) ([2]; storage at 30° C., 12-15 d) | spore viability [%] after 1 m (27-28 d) ([2]; storage at 30° C., 27-28 d) | spore viability [%] after 2 m (51-55 d) ([2]; storage at 30° C., 51-55 d) | spore viability [%] at day 1 ([3]; Beauveria bassiana, day 1) | spore viability [%] after 5 w (35 d) ([3]; storage at 30° C.) | spore viability [%] after 3 m (87-92 d) ([2]; Purpureocillium lilacinum) | spore viability [%] at day 1 ([2]; Purpureocillium lilacinum, 1 d) | spore viability [%] after 5 w (35 d) ([2]; Purpureocillium lilacinum) | spore viability [%] at day 1 ([3]; Beauveria bassiana, 1 d) | spore viability [%] 3 m@30° C. (83-85 d) ([5]; Penicillium bilaii) | spore viability [%] 6 w@30° C. (41-43 d) ([5]; Penicillium bilaii) | spore viability [%] initial (1-2 d) ([5]; Penicillium bilaii) | spore viability [%] after 1 m (27 d) [4] | spore viability [%] at day 1 [4] | also measured
1 | CCCCOCCOCCO [Butylcarbitol, diethylenglycol monobutylether, reference compound] | 19.1% | 0.5% | 2.4% | 92.7% | 62.1% | 10.8% | 3.2% | 53.3% | 0.8% | – | – | – | – | – | – | – | – | – | spore viability [%] after 7 m (210 d) ([2]; storage at 30° C., 210 d): 0.6%; decline in spore viability at day 1 and after storage [2]: steep decline in spore viability; decline in spore viability after storage under given conditions [3]: steep decline in spore viability
2 | COC(C)COC(C)CO (stereo not drawn) [Dowanol DPM, Dipropylene Glycol monomethyl ether] | – | – | – | 91.0% | 95.3% | 93.3% | 74.7% | 83.9% | 36.6% | – | – | – | – | – | – | – | – | – | spore viability [%] after 2 w (14 d) ([3]; storage at 30° C.): 61.0%
3 | COC(C)COC(C)COC(C)=O (stereo not drawn) [Dowanol DPMA, Dipropylene glycol methyl ether acetate] | 87.7% | 63.6% | 31.4% | 99.1% | – | – | – | – | – | – | – | – | – | – | – | – | – | – | spore viability [%] after 3 m (87-92 d) ([2]; storage at 30° C., 87-92 d): 35.7%; spore viability [%] after 5 w (35 d) ([2]; storage at 30° C.): 93.0%
4 | CC(=O)OCC(C)OC(C)=O (stereo not drawn) [Dowanol PGDA, Propylenglycol Diacetat] | – | – | – | – | – | – | – | – | – | 88.4% | 98.8% | 98.2% | 90.6% | 36.4% | 69.3% | 93.6% | – | – | spore viability after storage for 2 or 3 months, respectively ([2]; Purpureocillium lilacinum): ≥ 80%; spore viability [%] after 3 w (21 d) ([3]; Beauveria bassiana, 21 d): 51.6%; spore viability [%] at day 1 ([4]; Isaria fumosorosea, 1 d): 97.0%; spore viability [%] after 1 m (27 d) ([4]; Isaria fumosorosea, 27 d): 53.0%
5 | COC(C)COC(C)COC(C)CO (stereo not drawn) [Dowanol TPM, Tripropylene Glycol monomethyl ether] | 88.0% | 65.4% | 52.6% | 85.4% | 94.3% | 95.6% | 84.5% | 63.9% | 15.5% | – | – | – | – | – | – | – | – | – | spore viability [%] after 2 w (14 d) ([3]; storage at 30° C.): 19.0%; spore viability [%] at day 1 ([4]; I. fumosorosea, Method 2, day 1): 82.0%; spore viability [%] after 1 m (27 d) ([4]; Method 2, storage at 30° C., 27 d): 59.0%; spore viability [%] initial (1-2 d) ([5]; Penicillium bilaii, 1-2 d): 67.2%; spore viability [%] 6 w@30° C. (41-43 d) ([5]; storage at 30° C., 41-43 d): 7.6%; spore viability [%] 3 m@30° C. (83-85 d) ([5]; storage at 30° C., 83-85 d): 2.8%
6 | COCCOCCOCCO [Methoxytriglycol, Triethylenglycol monomethyl ether, reference compound] | – | – | – | – | – | – | – | – | – | 19.9% | 83.3% | 55.3% | 79.7% | 30.3% | 43.1% | 74.3% | – | – | decline in spore viability at day 1 and after storage [2]: steep decline in spore viability; spore viability [%] after 2 w (14 d) ([3]; Beauveria bassiana): 12.3%; spore viability [%] after 5 w (35 d) ([3]; Beauveria bassiana): 1.5%; decline in spore viability after storage under given conditions [3]: steep decline in spore viability
7 | COCC(C)OCC(C)OC (stereo not drawn) [Proglyde DMM, Dipropylene glycol dimethyl ether] | – | – | – | – | – | – | – | – | – | 75.4% | 98.8% | 96.0% | 88.4% | 10.5% | 29.6% | 54.6% | – | – | spore viability [%] after 2 w (14 d) ([3]; Beauveria bassiana): 48.0%; spore viability [%] after 5 w (35 d) ([3]; Beauveria bassiana): 21.8%
8 | Polyethyleneglycol-200 monooleate [Radiasurf 7402] | – | – | – | – | – | – | – | – | – | – | – | – | – | – | – | – | 15.8% | 89.9% | spore viability [%] after 1 m (27 d) [1]: 11.6%; spore viability [%] after 7 m (210 d) [1]: 1.1%; spore viability [%] at day 1 [1]: 92.5%; spore viability [%] after 1 m (27-28 d) [2]: 64.8%; spore viability [%] after 2 m (51-55 d) [2]: 34.7%; spore viability [%] after 2 w (12-15 d) [2]: 83.6%; spore viability [%] at day 1 [2]: 96.7%; spore viability [%] after 2 w (~14 d) [4]: 20.5%
9 | Polyethyleneglycol-400 dioleate [Radiasurf 7442] | – | – | – | – | – | – | – | – | – | – | – | – | – | – | – | – | 66.3% | 87.4% | spore viability [%] after 1 m (27 d) [1]: 72.1%; spore viability [%] at day 1 [1]: 89.4%; spore viability [%] after 1 m (27-28 d) [2]: 98.2%; spore viability [%] after 2 m (51-55 d) [2]: 96.8%; spore viability [%] after 2 w (12-15 d) [2]: 96.5%; spore viability [%] after 7 m (210 d) [2]: 88.3%; spore viability [%] at day 1 [2]: 98.7%; spore viability [%] after 3 w (21 d) [3]: 33.2%; spore viability [%] at day 1 [3]: 85.9%; spore viability [%] after 2 w (~14 d) [4]: 69.6%; spore viability [%] 3 m@30° C. (83-85 d) [5]: 76.5%; spore viability [%] 6 w@30° C. (41-43 d) [5]: 91%; spore viability [%] initial (1-2 d) [5]: 96.7%
10 | Tween 85 | – | – | – | – | – | – | – | – | – | – | – | – | – | – | – | – | 98.0% | 98.9% | spore viability [%] after 6 months [4]: 96.1*** %; spore viability after storage for 7 m at 30° C. [4]: ≥ 50%; spore viability [%] after 2 months [5]: 92.0$ %; spore viability [%] initial (1-2 d) [5]: 99.0%
